Marks after values point to notes of the source that are not given here.
What was measured:
[1] = test system: SD rats; experiment: Toxicity test on SD rats by repeated intravenous administrations for 7 days; assay type: in vivo, rat; conditions: 1 mg/kg intravenously qd
Procedure: This experiment was performed to evaluate the toxicity of compound 9 and AZD4320 to SD rats by repeated intravenous administrations for 7 days.
30 SD rats, weighing about 180-200 g and aged 6-7 weeks, half male and half female, purchased from Zhejiang Vital River Laboratory Animal Technology Co., Ltd., SPF grade. Animal certification number: 200917Aazz0619000298 and 20200917Aazz0619000104. Production license number: SCXK (Zhejiang) 2019-0001.
Housing conditions: SPF grade, animals were housed in plastic and transparent rat cages, 2-3 per cage. The room temperature was 20-26° C. and the relative humidity was 40%-70%. The illumination was controlled in a 12/12 light/dark cycle. The granulated feed for mice was freely taken in an unlimited amount.
The rats were randomly divided into the following 3 groups: a vehicle control group, a compound 9-1 mg/kg group and a compound AZD4320-1 mg/kg group, with 6 rats in each group, half male and half female.
Dosage of the test sample for the 7-day toxicity test in rats: 1 mg/kg (qd), for 7 consecutive days. Administration route: intravenously, dosing volume: 10 mL/kg, dosing frequency and dosing period: daily in the morning for 7 days.
Vehicle: 1.5% DMA+98.5% (10% HS-15), wherein DMA is N,N-dimethylacetamide (Shanghai Titan Scientific Co., Ltd., Cat #01013630); and HS-15 is polyethylene glycol stearate 15 (Solutol HS15) (Shanghai Xietai Chemical Co., Ltd., Cat #50253404).
Hitachi 7100 automatic biochemical analyzer
Siemens advia 2120i automatic blood cell analyzer
Sysmex ca1500 automatic coagulation analyzer
The detection results were input and statistically processed by Excel of the computer.
Clinical symptoms, food intake and general visual observation results of dissection were not statistically calculated, and indexes such as body weight, organ weight and clinical examination were counted by using T-test.
SD rats were intravenously administered with 1 mg/kg compound 9 or 1 mg/kg AZD4320 at 5 mL/kg for 7 repeated days.

[2] = Pharmacokinetic evaluation in mice (iv, LC/MS/MS plasma); assay type: in vivo; conditions: C57 mice, female, intravenous administration, dose 1 mg/kg (table)
Procedure: The drug concentration in the plasma of the test animals (mice) at different time points after intravenous (iv) administration of compound 10 and AZD4320 was determined by an LC/MS/MS method. The pharmacokinetic behavior of the compounds of the present disclosure in mice was studied and their pharmacokinetic profile was valuated.
18 C57 mice, female, randomly divided into 2 groups, purchased from Zhejiang Vital River Laboratory Animal Technology Co., Ltd, animal production license number: SCXK (Shanghai) 2017-0005.
A certain amount of compound 10 was weighed, dissolved by adding 5% by volume of DMSO and 5% Tween 80 (Shanghai Titan Scientific Co., Ltd.), and then prepared into a 0.1 mg/mL clear solution by adding 90% normal saline. Compound AZD4320 was formulated as with compound 10. […]
(§1) The mice were intravenously administered with compound 10, and 0.1 mL of blood was collected before the administration and 5 min, 0.25 h, 0.5 h, 1.0 h, 2.0 h, 4.0 h, 8.0 h, 11.0 h and 24.0 h after the administration, put into an EDTA-K2 anticoagulation tube, centrifuged at 10,000 rpm for 1 min (4° C.). Plasma was separated within 1 hour, and stored at −20° C. for testing. The process from blood collection to centrifugation was performed under an ice bath.
as §1, with “compound AZD4320,” for “compound 10,”
The content of the test compounds at different concentrations in plasma of mice after the administration was determined: 10 μL of plasma of mice at each time point after the administration was mixed with 200 μL of methanol (containing an internal standard solution camptothecin (100 ng/mL)); the mixture was vortexed for 1 min, and centrifuged for 10 min (18,000 r/min), and 3 μL of supernatant was taken for LC/MS/MS analysis.

[3] = molecular target: T1, BCL-2 (Homo sapiens, UniProt P10415); experiment: Binding activity for BCL-2 (HTRF, biotin-labeled BIM); conditions: His-tagged BCL-2, biotin-labeled BIM
T1 construct: purchased R&D systems 827-BC-050
Procedure: In vitro BCL-2-binding activity was tested by the following method.
(§2) Reagents used in this experiment: His-tagged BCL-2 protein (R&D systems, Cat #827-BC-050); biotin-labeled BIM protein (R&D, Cat #3526/1); binding buffer (cisbio, Cat #62DLBDDF); assay buffer (cisbio, Cat #62DB1FDG); MAb anti-6His-Eu cryptate (cisbio, Cat #61HI2KLA); and affinity streptomycin linked XL665 (cisbio, Cat #611SAXLA).
The in vitro binding assay described below can determine the binding activity of test compounds for BCL-2.
(§3) The test compounds were dissolved in dimethyl sulfoxide and diluted to gradient concentrations as required for the experiment, and the compounds at various concentrations formulated in dimethyl sulfoxide were subjected to a 100-fold dilution with a binding buffer. BCL-2 was diluted to the corresponding concentration with a binding buffer solution, and added to a white 384-well plate at 4 μL/well. Then the diluted test compound was added into the white 384-well plate at 2 μL/well. The plate was incubated at 25° C. for 1 h after the mixture was uniformly mixed. Biotin-labeled BIM protein was diluted to the corresponding concentration with a binding buffer, and added to a white 384-well plate at 4 μL/well. The plate was incubated at 25° C. for 2 h after the mixture was uniformly mixed. The MAb anti-6His-Eu cryptate and the affinity streptomycin linked XL665 were each diluted to the corresponding concentration with an assay buffer, and added to a white 384-well plate at 5 μL/well. The plate was incubated at 25° C. for 2-4 h after the mixture was uniformly mixed. The signal values were read with the HTRF program in a microplate reader (BMG Labtech, model: PHERAstar FS).

[4] = molecular target: T2, BCL-xL (Homo sapiens, UniProt Q07817); experiment: Binding activity for BCL-xL (HTRF, biotin-labeled BIM); conditions: His-tagged BCL-xL
T2 construct: purchased R&D 894-BX-050
Procedure: In vitro BCL-xL-binding activity was tested by the following method.
as §2, with “BCL-xL” for “BCL-2”, “(R&D,” for “(R&D systems,”, “#894-BX-050);” for “#827-BC-050);”
The in vitro binding assay described below can determine the binding activity of test compounds for BCL-xL.
as §3, with “BCL-xL” for “BCL-2”, “buffer,” for “buffer solution,”, “to” for “into”

[5] = test system: NCI-H146 cells; experiment: Inhibition of proliferation of NCI-H146 cells (CellTiter-Glo); assay type: cell-based; conditions: Homo sapiens, 72 h, 3 days, read-out: Inhibitory activity IC50 (nM) for the proliferation of NCI-H146 cells
Procedure: (§4) In vitro inhibitory activity for the proliferation of RS4;11 cells and NCI-H146 cells was tested by the following method.
(§5) Reagents used in this experiment: RPMI-1640 medium (HyCLone, Cat #SH30243018); fetal bovine serum (Gibco, Cat #10099-141); pancreatin (Gibco, Cat #25200-072); Cell Titer-Glo (Promega, Cat #G7571).
(§6) Materials used: RS4;11 cells (Nanjing Kebai Biotechnology Co., Ltd, Cat #CBP60641); and NCI-H146 cells (ATCC, Cat #HTB-173).
(§7) The in vitro cell proliferation assay described below can determine the inhibitory activity of the test compounds for the proliferation of RS4;11 cells and NCI-H146 cells.
(§8) RS4;11 cells (or NCI-H146 cells) were cultured in an RPMI-1640 culture medium containing 10% FBS, and were passaged for 2-3 times a week in a passage ratio of 1:3 or 1:5. During passage, the cells were transferred to a centrifuge tube, and centrifuged at 1200 rpm for 3 min. The supernatant was discarded, and fresh culture medium was added to resuspend the cells. 90 μL of cell suspension was added to a 96-well cell culture plate, wherein RS4;11 cells and NCI-H146 cells were added at a density of 2.22×10^5 cells/mL. Only 100 μL of complete medium (RPMI-1640 medium containing 10% FBS) was added to the periphery of the 96-well plate. The plate was incubated in an incubator for 24 h (37° C., 5% CO2).
(§9) The test sample was diluted to a proper concentration gradient with dimethyl sulfoxide as required for the experiment. 5 μL of the solution of the test compound prepared in a gradient concentration was added to 95 μL of fresh culture medium and mixed uniformly, and then 10 μL of the culture medium containing the above compound was added to a cell culture plate. The cell culture plate was incubated in an incubator for 3 days (37° C., 5% CO2). 50 μL of CellTiter-Glo reagent was added into each well of the 96-well cell culture plate. The plate was let stand for 5-10 min away from the light at room temperature. The chemiluminescence signals were read by a microplate reader (BMG Labtech, model: PHERAstar FS) and the data were processed by GraphPad software.

[6] = test system: RS4;11 cells; experiment: Inhibition of proliferation of RS4;11 cells (CellTiter-Glo); assay type: cell-based; conditions: Homo sapiens, 72 h, 3 days, read-out: Inhibitory activity IC50 (nM) for the proliferation of RS4;11 cells
Procedure: as §4, §5, §6, §7, §8, §9

T1 sequence (P10415 whole entry): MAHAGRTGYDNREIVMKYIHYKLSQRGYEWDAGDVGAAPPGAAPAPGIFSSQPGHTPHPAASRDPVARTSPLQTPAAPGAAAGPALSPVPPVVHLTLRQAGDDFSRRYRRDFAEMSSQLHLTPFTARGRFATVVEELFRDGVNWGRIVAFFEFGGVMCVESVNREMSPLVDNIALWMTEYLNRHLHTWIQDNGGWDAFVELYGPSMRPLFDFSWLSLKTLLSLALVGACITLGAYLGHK
T2 sequence (Q07817 whole entry): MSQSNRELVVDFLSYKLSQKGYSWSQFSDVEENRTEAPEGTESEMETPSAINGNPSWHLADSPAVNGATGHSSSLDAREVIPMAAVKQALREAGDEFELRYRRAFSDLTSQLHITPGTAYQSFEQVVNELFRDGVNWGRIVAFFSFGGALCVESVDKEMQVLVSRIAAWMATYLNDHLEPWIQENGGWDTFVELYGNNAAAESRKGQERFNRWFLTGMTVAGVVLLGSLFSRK

Compound	PLT (10^9/L) [1]	Effect on platelets (in words) ([1]; vs vehicle control)	Clearance CLz/F [2] [mL/min/kg]	AUC(0-t) ([2]; mouse, plasma, read-out: Area under curve AUC0-t) [ng·h/mL]	half-life ([2]; mouse, plasma, read-out: Half-life T½ (converted)) [h]	MRT inf ([2]; mouse, plasma, read-out: Mean retention time MRT 0-∞) [h]	concentration at 5 min ([2]; mouse, plasma, read-out: Plasma Concentration C5 min) [ng/mL]	Ki [3] [nM]	Ki [4] [nM]	IC50 [5] [nM]	IC50 [6] [nM]
CN(CCO)CC[C@H](CSc1ccccc1)Nc1ccc(S(=O)(=O)NC(=O)c2ccc(N3CCC([C@@H](O)c4ccccc4-c4ccc(Cl)cc4)CC3)cc2)cc1S(=O)(=O)C(F)(F)F [AZD4320, reference compound]	807.50** 10^9/L	more significantly reduced	72.7	206	3.1	2.4	436	–	–	–	–
O=C(NS(=O)(=O)c1ccc(N[C@@H](CSc2ccccc2)C[C@@H]2CCCN2CCO)c(S(=O)(=O)C(F)(F)F)c1)c1ccc(N2CCC([C@@H](O)c3ccccc3-c3ccc(C(F)(F)F)cc3)CC2)cc1 [Example 2-13, 4-(4-((R)-hydroxy(4′-(trifluoromethyl)-[1,1′-biphenyl]-2-yl)methyl)piperidin-1-yl)-N-((4-(((R)-1-((S)-1-(2-hydroxyethyl)pyrrolidin-2-yl)-3-(phenylthio)propan-2-yl)amino)-3-((trifluoromethyl)sulfonyl)phenyl)sulfonyl)benzamide]	–	–	–	–	–	–	–	0.04	0.3	35	7

Source: patent US20230250077A1, “SULFONYLBENZAMIDE DERIVATIVE AND CONJUGATE THEREOF, PREPARATION METHOD THEREFOR AND USE THEREOF” (Jiangsu Hengrui Pharmaceuticals Co., Ltd., priority 2020, published 2023)
